Experiments:
[1] = target: T1, Potassium voltage-gated channel subfamily A member 3 (Homo sapiens, UniProt P22001); assay: Inhibition of Kv1.3 (unknown origin); format: single protein
[2] = target: Potassium voltage-gated channel subfamily A member 2 (Homo sapiens, UniProt P16389); assay: Inhibition of Kv1.2 (unknown origin)
[3] = target: T1, Potassium voltage-gated channel subfamily A member 3; assay: Ratio of IC50 for Kv1.3 in human central memory T cells to IC50 for Kv1.3 in CD4+ MBP-specific multiple sclerosis patient effector memory T lymphocytes stimulated with 3 times MBP; format: cell-based; conditions: T-cell

T1 sequence (P22001 whole entry): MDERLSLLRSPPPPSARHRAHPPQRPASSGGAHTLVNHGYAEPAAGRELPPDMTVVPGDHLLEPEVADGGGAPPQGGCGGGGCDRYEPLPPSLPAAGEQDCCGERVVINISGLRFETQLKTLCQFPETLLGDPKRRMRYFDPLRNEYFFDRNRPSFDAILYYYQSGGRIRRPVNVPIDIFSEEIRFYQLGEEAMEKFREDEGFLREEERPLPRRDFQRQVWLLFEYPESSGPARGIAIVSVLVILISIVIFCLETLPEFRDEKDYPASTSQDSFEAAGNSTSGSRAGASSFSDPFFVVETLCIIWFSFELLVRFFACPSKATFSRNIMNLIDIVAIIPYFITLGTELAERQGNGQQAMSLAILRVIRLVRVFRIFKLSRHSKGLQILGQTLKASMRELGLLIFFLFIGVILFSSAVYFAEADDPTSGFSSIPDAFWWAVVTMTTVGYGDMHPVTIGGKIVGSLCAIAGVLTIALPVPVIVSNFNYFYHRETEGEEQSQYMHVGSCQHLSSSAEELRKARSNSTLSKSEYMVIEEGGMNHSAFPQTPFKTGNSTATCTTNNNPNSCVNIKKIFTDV
Sequence of Potassium voltage-gated channel subfamily A member 2 (P16389 whole entry): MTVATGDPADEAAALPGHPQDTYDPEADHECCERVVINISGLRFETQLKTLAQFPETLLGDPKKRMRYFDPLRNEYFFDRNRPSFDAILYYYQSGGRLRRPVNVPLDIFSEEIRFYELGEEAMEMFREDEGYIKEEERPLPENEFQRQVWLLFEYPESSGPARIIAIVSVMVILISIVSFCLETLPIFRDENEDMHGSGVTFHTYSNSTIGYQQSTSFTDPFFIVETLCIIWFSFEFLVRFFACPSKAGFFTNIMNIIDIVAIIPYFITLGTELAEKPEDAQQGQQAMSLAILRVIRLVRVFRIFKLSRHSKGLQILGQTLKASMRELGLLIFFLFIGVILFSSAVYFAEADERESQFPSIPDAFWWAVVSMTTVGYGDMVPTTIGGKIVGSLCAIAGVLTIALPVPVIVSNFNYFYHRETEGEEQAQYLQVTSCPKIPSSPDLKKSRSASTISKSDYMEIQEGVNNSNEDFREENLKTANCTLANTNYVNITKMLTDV

Row | SMILES | EC50 [1] | further results
1 | COc1cccc(OCCCOc2c3ccoc3cc3oc(=O)ccc23)c1 | 45 nM | 
2 | O=c1ccc2c(OCCCCOc3ccccc3)c3ccoc3cc2o1 |  | EC50 [2]: 250 nM
3 | CCc1ccc(OCCCOc2c3ccoc3cc3oc(=O)ccc23)cc1 | 14 nM | 
4 | O=c1ccc2c(OCCCOc3ccc(Cl)cc3)c3ccoc3cc2o1 | 10 nM | 
5 | COc1cc(OC)cc(OCCCCCOc2c3ccoc3cc3oc(=O)ccc23)c1 | 32 nM | 
6 | O=c1ccc2c(OCCCCOc3ccc(Oc4ccccc4)cc3)c3ccoc3cc2o1 | 16 nM | 
7 | N#CCCCOc1c2occc2cc2ccc(=O)oc12 | 5000 nM | 
8 | O=c1ccc2c(OCCCCOc3cccc4ccccc34)c3ccoc3cc2o1 | 20 nM | 
9 | Cc1ccc(OCCCCOc2c3ccoc3cc3oc(=O)ccc23)c([N+](=O)[O-])c1 | 700 nM | 
10 | COc1cccc(OCCCCOc2c3ccoc3cc3oc(=O)ccc23)c1 | 21 nM | 
11 | COc1ccc2sc(SCCCCOc3c4ccoc4cc4oc(=O)ccc34)nc2c1 | 35 nM | 
12 | N#CCCCOc1c2ccoc2cc2oc(=O)ccc12 | 5000 nM | 
13 | CCc1ccc(OCCCCCOc2c3ccoc3cc3oc(=O)ccc23)cc1 | 35 nM | 
14 | O=c1ccc2c(OCCCCn3cccn3)c3ccoc3cc2o1 | 450 nM | 
15 | COc1cc(OC)cc(OCCCCOc2c3ccoc3cc3oc(=O)ccc23)c1 | 120 nM | 
16 | O=c1ccc2ccc(OCCCCOc3c4ccoc4cc4oc(=O)ccc34)cc2o1 | 125 nM | 
17 | N#CCCCCOc1c2ccoc2cc2oc(=O)ccc12 | 1300 nM | 
18 | Cc1nnc(SCCCCOc2c3ccoc3cc3oc(=O)ccc23)s1 | 175 nM | 

Row | SMILES | EC50 [1] | further results
19 | O=c1ccc2c(OCCCCOc3ccc([N+](=O)[O-])cc3)c3ccoc3cc2o1 | 7 nM | 
20 | COc1cc(OC)cc(OCCCOc2c3ccoc3cc3oc(=O)ccc23)c1 | 75 nM | 
21 | O=c1ccc2c(OCCCCOc3ccc4ccccc4c3)c3ccoc3cc2o1 | 12 nM | 
22 | Cc1ccc(OCCCCOc2c3ccoc3cc3oc(=O)ccc23)cc1 | 7 nM | 
23 | O=c1ccc2c(OCCCCCOc3ccccc3)c3ccoc3cc2o1 | 15 nM | 
24 | O=C(CCCOc1c2ccoc2cc2oc(=O)ccc12)c1ccccc1 | 31 nM | 
25 | O=c1ccc2c(OCCOCc3ccccc3)c3ccoc3cc2o1 | 10 nM | 
26 | O=c1ccc2c(OCCCOc3ccccc3)c3ccoc3cc2o1 | 15 nM | 
27 | O=c1ccc2c(OCCCCOCc3ccccc3)c3ccoc3cc2o1 | 49 nM | 
28 | CCc1ccc(OCCCCOc2c3ccoc3cc3oc(=O)ccc23)cc1 | 13 nM | 
29 | N#CCCCCOc1c2occc2cc2ccc(=O)oc12 | 5000 nM | 
30 | COc1ccc(OCCCCOc2c3ccoc3cc3oc(=O)ccc23)cc1 | 8 nM | 
31 | O=c1ccc2c(OCCCOCc3ccccc3)c3ccoc3cc2o1 | 50 nM | 
32 | CC[C@H](C)[C@@H]1NC(=O)[C@@H](NC(=O)[C@H](CO)NC(=O)[C@@H](N)CCCNC(=N)N)CSSC[C@@H](C(=O)O)NC(=O)[C@H]([C@@H](C)O)NC(=O)CNC(=O)[C@@H]2CSSC[C@@H]3NC(=O)[C@H](CCC(N)=O)NC(=O)[C@H](Cc4ccccc4)NC(=O)[C@H](C)NC(=O)[C@H]([C@@H](C)O)NC(=O)[C@H](CSSC[C@H](NC(=O)[C@H](Cc4ccccc4)NC(=O)[C@@H](CO)NC(=O)[C@@H](CC(C)C)NC(=O)[C@H](CCCNC(=N)N)NC(=O)[C@H](Cc4ccc(O)cc4)NC(=O)[C@H](CCCCN)NC(=O)[C@H](CCSC)NC(=O)[C@H](CO)NC(=O)[C@H](Cc4cnc[nH]4)NC(=O)[C@H](CCCCN)NC3=O)C(=O)N[C@@H](CCCNC(=N)N)C(=O)N[C@@H](CCCCN)C(=O)N[C@@H]([C@@H](C)O)C(=O)N2)NC(=O)[C@H](CCCNC(=N)N)NC(=O)[C@H](CO)NC(=O)[C@H](CCCCN)NC(=O)[C@@H]2CCCN2C(=O)[C@H]([C@@H](C)CC)NC(=O)[C@H]([C@@H](C)O)NC(=O)[C@H](CC(=O)O)NC1=O |  | Ratio IC50 [3]: 10
33 | O=c1ccc2c(OCCCCOc3ccc(Cl)cc3)c3ccoc3cc2o1 | 5 nM | 
34 | O=c1ccc2c(OCCCCSc3ncccn3)c3ccoc3cc2o1 | 50 nM | 
35 | O=c1ccc2c(OCCCCOc3cccc(C(F)(F)F)c3)c3ccoc3cc2o1 | 65 nM | 
